Where two headings read alike, the source gives them in different places.

Data set [1] has as its target 15-PGDH protein (Homo sapiens (Human), UniProt P15428). As to the kind of experiment: Inhibition of enzymatic activity of recombinant 15-PGDH in vitro (tritium transfer from PGE2 or NADH fluorescence). Particulars: for inhibition at […]: read-out: Enzyme inhibition % ([…]), recombinant 15-PGDH, […] compound; for IC50: recombinant 15-PGDH in vitro, read-out: Enzyme inhibition (IC50). The data set is classed as biochemical.

The test system of data set [2] is 15-PGDH luciferase fusion construct in V9m reporter cell line. As to the kind of experiment: 15-PGDH-luciferase fusion gene reporter induction, V9m cells. The data set is classed as cell-based.
The test system of data set [3] is 15-PGDH luciferase fusion construct in LS174T reporter cell line. As to the kind of experiment: 15-PGDH-luciferase fusion gene reporter induction, LS174T cells. Particulars: Homo sapiens. The data set is classed as cell-based.
The test system of data set [4] is 15-PGDH luciferase fusion construct in Vaco503 reporter cell line. The experiment in a line: 15-PGDH-luciferase fusion gene reporter induction, V503 cells. The data set is classed as cell-based.
In data set [5] the test system is A549 cells. As to the kind of experiment: PGE2 levels in the medium of IL1-beta stimulated A549 cells.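 As to all read-outs here: PGE2 in the collected culture medium quantified by enzyme immunoassay (ELISA), with data drawn from three independent experiments.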 The note with it: for Decrease PGE-2 (IL-1beta-A549, %): media of IL-1beta stimulated A549 cells. The data set is classed as cell-based.
For data set [6], the system named is A549 cells. As to the kind of experiment: Cellular toxicity on A549 cells (CellTiter-Glo). The data set is classed as cell-based. Details: Decrease Cell viability in A549 cell (%): concentration or dose not given beside the values. The note with it: A549 cells.
The subject of data set [7] is 15-PGDH-luciferase fusion reporter in V9m, LS174T and V503 cells. As to the kind of experiment: 15-PGDH-luciferase fusion gene reporter induction, stated for the three cell line backgrounds together. The data set is classed as cell-based. Particulars: […] and […].
[8] abbreviates: Table 18, read-out: Enzyme inhibition % (7.5 μM).
Setting [9] is: read-out: V9M-SC3 Reporter activity ([…]) (%), […], Table 18, read-out: V9M-SC3 Reporter activity (2.5 μM) (%).
The mark [10] stands for this setting: read-out: Ls174T-SC1 reporter activity, % ([…]), […], Table 18, read-out: Ls174T-SC1 reporter activity, % (2.5 μM).
The mark [11] stands for this setting: read-out: Ls174T-SC1 reporter activity, % ([…]), […], Table 18, read-out: Ls174T-SC1 reporter activity, % (7.5 μM).
[12] abbreviates: read-out: V503-3H9-7 reporter activity, % ([…]), […], Table 18, read-out: V503-3H9-7 reporter activity, % (2.5 μM).
The mark [13] stands for this setting: read-out: V503-3H9-7 reporter activity, % ([…]), […], Table 18, read-out: V503-3H9-7 reporter activity, % (7.5 μM).
Setting [14] is: read-out: V9M-SC3 Reporter activity ([…]) (%), V9m reporter cells, […] compound, % induction of luciferase activity over basal level, read-out: V9M-SC3 Reporter activity (2.5 μM) (%).
[15] abbreviates: read-out: V9M-SC3 Reporter activity ([…]), %, V9m reporter cells, […] compound, % induction of luciferase activity over basal level, read-out: V9M-SC3 Reporter activity (7.5 μM), %.
Setting [16] is: read-out: Ls174T-SC1 reporter activity, % ([…]), LS174T reporter cells, […] compound, % induction of luciferase activity over basal level, read-out: Ls174T-SC1 reporter activity, % (2.5 μM).
Setting [17] is: read-out: Ls174T-SC1 reporter activity, % ([…]), LS174T reporter cells, […] compound, % induction of luciferase activity over basal level, read-out: Ls174T-SC1 reporter activity, % (7.5 μM).
[18] abbreviates: read-out: V503-3H9-7 reporter activity, % ([…]), V503 reporter cells, […] compound, % induction of luciferase activity over basal level, read-out: V503-3H9-7 reporter activity, % (2.5 μM).
Setting [19] is: read-out: V503-3H9-7 reporter activity, % ([…]), V503 reporter cells, […] compound, % induction of luciferase activity over basal level, read-out: V503-3H9-7 reporter activity, % (7.5 μM).

Chain of 15-PGDH protein (P15428 whole entry): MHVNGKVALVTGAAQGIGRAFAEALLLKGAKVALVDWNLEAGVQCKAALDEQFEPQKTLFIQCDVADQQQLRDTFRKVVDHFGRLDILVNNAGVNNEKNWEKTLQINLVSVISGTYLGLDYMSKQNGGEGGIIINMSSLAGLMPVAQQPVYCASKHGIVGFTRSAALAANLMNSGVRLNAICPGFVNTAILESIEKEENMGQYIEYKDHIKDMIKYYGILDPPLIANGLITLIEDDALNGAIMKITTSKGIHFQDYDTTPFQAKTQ

Turning to `COc1ccc(OC)c(N(CC(=O)Nc2ccc(C)cc2)S(=O)(=O)c2ccccc2)c1` [311333-86-5], the inhibition at […] in data set [1] (setting [8]) stood at 34%. Moreover, the activation at […] in data set [2] (setting [9]) is 53%; in data set [3] (setting [10]), 30%; in data set [3] (setting [11]), 53.4%; in data set [4] (setting [12]), 102%; in data set [4] (setting [13]), 131%.

As to `COc1ccc(NC(=O)CN(c2cc(OC)ccc2OC)S(=O)(=O)c2ccccc2)cc1` [333447-10-2], the inhibition at […] was 27% in data set [1] (Table 18, read-out: Enzyme inhibition % (2.5 μM)) and 46.5% in data set [1] (setting [8]). Also, the percent induction of reporter activity over basal level at […] in data set [2] (read-out: V9M-SC3 Reporter activity % ([…]), 7.5 μM, Table 18) came out at 10%. Moreover, the activation at […] in data set [2] (setting [9]) is -0.5%; in data set [3] (setting [10]) it was 7.54%; in data set [3] (setting [11]), 14.4%; in data set [4] (setting [12]), 76.9%; in data set [4] (setting [13]) it was 159%.

With `CCCC[S@](C)(O)c1sc2nc(-c3cccs3)cc(-c3ccccc3)c2c1N` [SW033291 isomer B], in data set [1] (Table 2), the IC50 came to 0.00076 µM.

Take `COc1ccc(OC)c(N(CC(=O)Nc2ccncc2)S(=O)(=O)c2ccccc2)c1` [SW202938]: the IC50 in data set [1] came out at 2.67 µM. Besides, the activation at […] is 155% in data set [2] (setting [14]); 230% in data set [2] (setting [15]); 217% in data set [3] (setting [16]); 241% in data set [3] (setting [17]); 309% in data set [4] (setting [18]); 301% in data set [4] (setting [19]). Besides, in data set [5], the “Decrease PGE-2 (IL-1beta-A549, %)” value is −47.55%.

On to `COc1ccc(OC)c(N(CC(=O)Nc2ccc(C)nc2)S(=O)(=O)c2ccccc2)c1` [SW202988], for which the concentration for half-maximal inhibition (IC50) in data set [1] was around 10 µM. Further, the activation at […] in data set [2] (setting [14]) worked out at 7.36%; in data set [2] (setting [15]), 54.4%; in data set [3] (setting [16]), 40.5%; in data set [3] (setting [17]), 125%; in data set [4] (setting [18]) it was 125%; in data set [4] (setting [19]), 258%. Further, the “Decrease PGE-2 (IL-1beta-A549, %)” value in data set [5] is −16.79%.

Regarding `COc1ccc(S(=O)(=O)N(CC(=O)Nc2ccncc2)c2cc(OC)ccc2OC)cc1` [SW202989], in data set [1], the IC50 came out at 0.427 µM. Also, the activation at […] in data set [2] (setting [14]) worked out at 188%; in data set [2] (setting [15]), 184%; in data set [3] (setting [16]) it was 159%; in data set [3] (setting [17]) it was 171%; in data set [4] (setting [18]), 208%; in data set [4] (setting [19]), 214%. Also, the “Decrease PGE-2 (IL-1beta-A549, %)” value in data set [5] is 69.40%. Besides, in data set [6], the “Decrease Cell viability in A549 cell (%)” value amounted to 30.59%.

In the case of `COc1ccc(OC)c(N(CC(=O)Nc2cncnc2)S(=O)(=O)c2ccccc2)c1` [SW203683], the IC50 in data set [1] is around 7 µM. Besides, the activation at […] was 137% in data set [2] (setting [14]); 191% in data set [2] (setting [15]); 3.76% in data set [3] (setting [16]); 210% in data set [3] (setting [17]); 104% in data set [4] (setting [18]); -41% in data set [4] (setting [19]). Moreover, the “Decrease PGE-2 (IL-1beta-A549, %)” value in data set [5] was −3.41%.

With `COc1ccc(OC)c(N(CC(=O)Nc2ccnnc2)S(=O)(=O)c2ccccc2)c1` [SW203685], the IC50 in data set [1] came out at 5 µM. For the same molecule, the activation at […] in data set [2] (setting [14]) is 100%; in data set [2] (setting [15]), 204%; in data set [3] (setting [16]) it was 22.3%; in data set [3] (setting [17]), 254%; in data set [4] (setting [18]), 122%; in data set [4] (setting [19]) it was -33.2%. Besides, in data set [5], the “Decrease PGE-2 (IL-1beta-A549, %)” value came out at 17.84%.

In the case of `COc1ccc(OC)c(N(CC(=O)Nc2nccs2)S(=O)(=O)c2ccccc2)c1` [SW203691], the inhibition at […] in data set [1] (read-out: Enzyme inhibition % (7.5 μM)) was 3.12%. The activation at […] in data set [2] (setting [14]) is 7.78%; in data set [2] (setting [15]), 19.8%; in data set [3] (setting [16]), 5.47%; in data set [3] (setting [17]), 22%; in data set [4] (setting [18]), 47.1%; in data set [4] (setting [19]) it was 90%. In addition, in data set [5], the “Decrease PGE-2 (IL-1beta-A549, %)” value is 36.76%. In addition, in data set [6], the “Decrease Cell viability in A549 cell (%)” value was determined as 0.00%.

In the case of `COc1ccc(OC)c(N(CC(=O)Nc2cccnc2)S(=O)(=O)c2ccc(F)cc2)c1` [SW203736], the activation at […] turned out to be 132% in data set [2] (setting [14]); 145% in data set [2] (setting [15]); 127% in data set [3] (setting [16]); 156% in data set [3] (setting [17]); 244% in data set [4] (setting [18]); 204% in data set [4] (setting [19]). For the same molecule, the “lowering of PGE2 levels in media” value in data set [5] was “show activity in lowering PGE2”. In data set [5], the “Decrease PGE-2 (IL-1beta-A549, %)” value was found to be 31.86%. Moreover, the “Decrease Cell viability in A549 cell (%)” value in data set [6] is recorded as −3.06%.

Take `COc1ccc(OC)c(N(CC(=O)Nc2cccnc2)S(=O)(=O)c2ccc(Br)cc2)c1` [SW203737]: the activation at […] was 93.4% in data set [2] (setting [14]); 103% in data set [2] (setting [15]); 76.7% in data set [3] (setting [16]); 85.1% in data set [3] (setting [17]); 176% in data set [4] (setting [18]); 154% in data set [4] (setting [19]). For the same molecule, the “lowering of PGE2 levels in media” value in data set [5] is reported as “show activity in lowering PGE2”. Further, the “Decrease PGE-2 (IL-1beta-A549, %)” value in data set [5] turned out to be 47.78%. In data set [6], the “Decrease Cell viability in A549 cell (%)” value was −2.56%.

As for `COc1ccc(S(=O)(=O)N(CC(=O)N2CCCCCC2)c2cc(OC)ccc2OC)cc1` [SW207998], the activation at […] in data set [2] (setting [14]) is 53.4%; in data set [2] (setting [15]), 58.9%; in data set [3] (setting [16]), 65.2%; in data set [3] (setting [17]), 77%; in data set [4] (setting [18]) it was 144%; in data set [4] (setting [19]), 147%. Besides, the “rank of reduction in levels of PGE2 in the medium” value in data set [5] (100 nM drug, FIG. 94) was “greatest reduction in levels of PGE2”.

Take `COc1ccc(S(=O)(=O)N(CC(=O)N2CCCCC2)c2cc(OC)ccc2OC)cc1` [SW207999]: the activation at […] in data set [2] (setting [14]) amounted to 128%; in data set [2] (setting [15]), 124%; in data set [3] (setting [16]), 98%; in data set [3] (setting [17]) it was 123%; in data set [4] (setting [18]), 124%; in data set [4] (setting [19]), 110%. The “induction of 15-PGDH-luciferase reporter in cell lines (SW054384 analogues)” value in data set [7] is “active in inducing the 15-PGDH-luciferase reporter”.

With `CCCC[S+]([O-])c1sc2nc(-c3cccs3)nc(-c3ccccc3)c2c1N` (stereo not drawn) [SW208067, 6-(butylsulfinyl)-4-phenyl-2-(thiophen-2-yl)thieno[2,3-d]pyrimidin-5-amine], the activation at […] amounted to 122% in data set [2] (read-out: V9M reporter activity ([…]), […], % increased luciferase activity over basal level, 100 = doubling, read-out: V9M reporter activity (2.5 uM)); 108% in data set [2] (read-out: V9M reporter activity ([…]), […], % increased luciferase activity over basal level, 100 = doubling, read-out: V9M reporter activity (7.5 uM)); 94.3% in data set [3] (read-out: LS174T reporter activity ([…]), […], % increased luciferase activity over basal level, read-out: LS174T reporter activity (2.5 uM)); 79.6% in data set [3] (read-out: LS174T reporter activity ([…]), […], % increased luciferase activity over basal level, read-out: LS174T reporter activity (7.5 uM)); 94.3% in data set [4] (read-out: V503 reporter activity ([…]), […], % increased luciferase activity over basal level, read-out: V503 reporter activity (2.5 uM)); 79.6% in data set [4] (read-out: V503 reporter activity ([…]), […], % increased luciferase activity over basal level, read-out: V503 reporter activity (7.5 uM)). In addition, the “rank of PGE2 level in the medium” value in data set [5] (100 nM drug, FIG. 44) is on record as “highest levels of PGE2”.

Turning to `CCCC[S+]([O-])c1ncccc1[N+](=O)[O-]` (stereo not drawn) [SW208069, 2-(butylsulfinyl)-3-nitropyridine], in data set [1] (Table 2, cells printed in uM), the IC50 is above 7.5 µM.

As usually defined, the inhibition is the percentage by which the read-out fell short of the control. In general, IC50 refers to the concentration needed to halve the response being measured.

The record behind these values is US9790233B2, “Compositions and methods of modulating 15-PGDH activity” (CASE WESTERN RESERVE UNIVERSITY, priority 2012, dated 2017).
